Laboratory results published in patent US4999424A, “GAR transformylase inhibitor” (The Pennsylvania State University, priority 1988, dated 1991).

Molecular target: T1, GAR TFase (HeLa O) (Homo sapiens, UniProt P22102)
T1 construct: GAR TFase activity is the C-terminal domain of trifunctional GART
T1 sequence (P22102 2-1010): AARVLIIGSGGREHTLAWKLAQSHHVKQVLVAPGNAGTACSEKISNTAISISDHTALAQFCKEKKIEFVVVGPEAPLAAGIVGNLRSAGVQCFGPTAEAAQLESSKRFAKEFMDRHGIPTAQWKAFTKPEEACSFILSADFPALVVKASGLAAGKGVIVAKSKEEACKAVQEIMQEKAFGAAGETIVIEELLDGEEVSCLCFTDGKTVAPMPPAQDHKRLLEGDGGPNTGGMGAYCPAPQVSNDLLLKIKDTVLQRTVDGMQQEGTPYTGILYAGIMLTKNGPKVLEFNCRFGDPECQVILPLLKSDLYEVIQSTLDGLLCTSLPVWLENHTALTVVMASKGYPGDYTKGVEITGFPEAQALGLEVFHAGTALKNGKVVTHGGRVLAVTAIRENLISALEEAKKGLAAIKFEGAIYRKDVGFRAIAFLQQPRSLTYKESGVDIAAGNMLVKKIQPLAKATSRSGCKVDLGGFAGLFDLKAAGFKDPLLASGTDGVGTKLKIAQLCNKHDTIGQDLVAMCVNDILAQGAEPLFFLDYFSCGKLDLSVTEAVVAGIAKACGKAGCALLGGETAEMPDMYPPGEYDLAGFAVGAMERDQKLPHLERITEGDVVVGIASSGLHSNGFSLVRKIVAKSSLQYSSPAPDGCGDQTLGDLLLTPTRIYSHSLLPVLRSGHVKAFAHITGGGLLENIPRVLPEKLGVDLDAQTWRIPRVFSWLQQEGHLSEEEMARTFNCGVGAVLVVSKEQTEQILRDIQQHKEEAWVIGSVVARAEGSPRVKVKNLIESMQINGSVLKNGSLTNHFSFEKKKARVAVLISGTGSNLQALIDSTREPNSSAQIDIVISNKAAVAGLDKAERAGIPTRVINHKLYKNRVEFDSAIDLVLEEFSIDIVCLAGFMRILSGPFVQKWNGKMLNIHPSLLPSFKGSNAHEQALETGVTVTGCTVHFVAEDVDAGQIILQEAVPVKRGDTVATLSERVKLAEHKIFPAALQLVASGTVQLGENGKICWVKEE
Assay: HeLa O GAR TFase inhibition
Assay type: biochemical
Conditions: for Mode of inhibition: HeLa O GAR TFase
Procedure: All assays were carried out by following the increase of 5,8-dideazafolate absorbence at 295 nm in buffered medium at 26° C. To initiate the reaction, enzyme (1 nM final concentration) was added to a mixture of saturating substrates and variable amounts of inhibitor. A characteristic family of curves was obtained, showing slow, tight-binding inhibition. See, Morrison, Trends Biochem. Sc., 7, 102 (1982) and Morrison, et al., Adv. Enzymology, Relat. Areas Mol. Biol., 57, 201-301 (1987).
The specificity of beta-TGDDF for GAR TFase from species other than E. coli was assayed in a general manner by measuring the activity of GAR TFase at a concentration of 1 nM from avian, HeLa, and L121? sources in the presence of 20 nM beta-TGDDF.
Table II illustrates the specificity of beta-TGDDF for GAR TFase in comparison with other reduced-folate utilizing enzymes. This test, was conducted using the same [I]/[E]ratios as stated previously.
E. coli GAR TFase was prepared and purified as described below. L1210 and HeLa GAR TFase were purified according to published procedures. AICAR TFase was prepared according to published procedures.

For `Nc1nc2ccc(CN(C(=O)CSCC(=O)N[C@@H]3O[C@H](COP(=O)(O)O)[C@@H](O)[C@H]3O)c3ccc(C(=O)N[C@@H](CCC(=O)O)C(=O)O)cc3)cc2c(=O)[nH]1` [beta-TGDDF, N^10-[5'-phosphoribosyl-1'-β-amino-carbonylmethyl-1-thioacetyl]-5,8-dideazafolate], the Extent of inhibition (20 nM beta-TGDDF, 1 nM enzyme) was “inhibited by roughly the same magnitude”, the Mode of inhibition was “inhibition of a slow, tight binding nature” and the Mode of inhibition (listed as Beta-TGDDF) was “slow, tight-binding inhibitor”.
